The structures appear in SMILES notation. Counter-ions that a name gives are not always drawn.

One test concerns JAK1-dependent STAT6 phosphorylation downstream of IL-13 stimulation in TF-1 human erythroleukemia cells. Put plainly: cells. As to conditions: TF-1, read-out: IL-13-pSTAT6 IC50.
Usually IC50 stands for the concentration that gives 50% inhibition. Turning to `CN(Cc1ccc2ncccc2c1)C(=O)c1ccc(Nc2nc3c(C4=CCN(C(=O)CCC(F)(F)F)CC4)cccn3n2)cc1` [Example 2-460, N-methyl-N-(6-quinolylmethyl)-4-[[8-[1-(4,4,4-trifluorobutanoyl)-3,6-dihydro-2H-pyridin-4-yl]-[1,2,4]triazolo[1,5-a]pyridin-2-yl]amino]benzamide], the concentration for half-maximal inhibition (IC50) turned out to be 27.6 nM.
The same measure, in the same setting: next, `CC1CCCN(C2CCN(C(=O)c3ccc(Nc4nc5c(C6=CCN(C(=O)CCC(F)(F)F)CC6)cccn5n4)cc3)CC2)C1` (stereo not shown) [Example 2-461, 4,4,4-trifluoro-1-[4-[2-[4-[4-(3-methyl-1-piperidyl)piperidine-1-carbonyl]anilino]-[1,2,4]triazolo[1,5-a]pyridin-8-yl]-3,6-dihydro-2H-pyridin-1-yl]butan-1-one]: 6.1 nM.
On the same count and under the same terms, next, `O=C(CCC(F)(F)F)N1CC=C(c2cccn3nc(Nc4ccc(C(=O)N5CCN(CCn6ccnc6)CC5)cc4)nc23)CC1` [Example 2-462, 4,4,4-trifluoro-1-[4-[2-[4-[4-(2-imidazol-1-ylethyl)piperazine-1-carbonyl]anilino]-[1,2,4]triazolo[1,5-a]pyridin-8-yl]-3,6-dihydro-2H-pyridin-1-yl]butan-1-one]: 44.4 nM.
The same measure, in the same setting: next, `CC(C)N1CCC(CN(C)C(=O)c2ccc(Nc3nc4c(C5=CCN(C(=O)CCC(F)(F)F)CC5)cccn4n3)cc2)C1` (stereo not shown) [Example 2-463, N-[(1-isopropylpyrrolidin-3-yl)methyl]-N-methyl-4-[[8-[1-(4,4,4-trifluorobutanoyl)-3,6-dihydro-2H-pyridin-4-yl]-[1,2,4]triazolo[1,5-a]pyridin-2-yl]amino]benzamide]: 26 nM.
On to `CN(C)C1CCN(C(=O)c2ccc(Nc3nc4c(C5=CCN(C(=O)CCC(F)(F)F)CC5)cccn4n3)cc2)C1` (stereo not shown) [Example 2-464, 1-[4-[2-[4-[3-(dimethylamino)pyrrolidine-1-carbonyl]anilino]-[1,2,4]triazolo[1,5-a]pyridin-8-yl]-3,6-dihydro-2H-pyridin-1-yl]-4,4,4-trifluoro-butan-1-one], for which the IC50 was 9.1 nM.
Same read-out and setting: under `O=C(NCCN1CCOCC1)c1ccc(Nc2nc3c(C4=CCN(C(=O)CCC(F)(F)F)CC4)cccn3n2)cc1` [Example 2-465, N-(2-morpholinoethyl)-4-[[8-[1-(4,4,4-trifluorobutanoyl)-3,6-dihydro-2H-pyridin-4-yl]-[1,2,4]triazolo[1,5-a]pyridin-2-yl]amino]benzamide] stands 9.4 nM.
The same measure, in the same setting: next, `O=C(NCCN1CCCC1)c1ccc(Nc2nc3c(C4=CCN(C(=O)CCC(F)(F)F)CC4)cccn3n2)cc1` [Example 2-466, N-(2-pyrrolidin-1-ylethyl)-4-[[8-[1-(4,4,4-trifluorobutanoyl)-3,6-dihydro-2H-pyridin-4-yl]-[1,2,4]triazolo[1,5-a]pyridin-2-yl]amino]benzamide]: 17.9 nM.
Still for that read-out and setting: next, `CN1CCC(CNC(=O)c2ccc(Nc3nc4c(C5=CCN(C(=O)CCC(F)(F)F)CC5)cccn4n3)cc2)CC1` [Example 2-467, N-[(1-methyl-4-piperidyl)methyl]-4-[[8-[1-(4,4,4-trifluorobutanoyl)-3,6-dihydro-2H-pyridin-4-yl]-[1,2,4]triazolo[1,5-a]pyridin-2-yl]amino]benzamide]: 20.9 nM; `Cc1cccc(C2CCN(C(=O)c3ccc(Nc4nc5c(C6=CCN(C(=O)CCC(F)(F)F)CC6)cccn5n4)cc3)CC2)n1` [Example 2-468, 4,4,4-trifluoro-1-[4-[2-[4-[4-(6-methyl-2-pyridyl)piperidine-1-carbonyl]anilino]-[1,2,4]triazolo[1,5-a]pyridin-8-yl]-3,6-dihydro-2H-pyridin-1-yl]butan-1-one]: 12.8 nM; `O=C(N[C@H]1CN2CCC1CC2)c1ccc(Nc2nc3c(C4=CCN(C(=O)CCC(F)(F)F)CC4)cccn3n2)cc1` [Example 2-469, N-[(3R)-quinuclidin-3-yl]-4-[[8-[1-(4,4,4-trifluorobutanoyl)-3,6-dihydro-2H-pyridin-4-yl]-[1,2,4]triazolo[1,5-a]pyridin-2-yl]amino]benzamide]: 83.8 nM.
In the case of `CNC(=O)C1CN(C(=O)c2ccc(Nc3nc4c(C5=CCN(C(=O)CCC(F)(F)F)CC5)cccn4n3)cc2)CCN1CCc1ccccc1` (stereo not shown) [Example 2-470, N-methyl-1-(2-phenylethyl)-4-[4-[[8-[1-(4,4,4-trifluorobutanoyl)-3,6-dihydro-2H-pyridin-4-yl]-[1,2,4]triazolo[1,5-a]pyridin-2-yl]amino]benzoyl] piperazine-2-carboxamide], the IC50 came out at 13 nM.
As for `O=C(CCC(F)(F)F)N1CC=C(c2cccn3nc(Nc4ccc(C(=O)N5CCC(Cc6ccccn6)C5)cc4)nc23)CC1` (stereo not shown) [Example 2-471, 4,4,4-trifluoro-1-[4-[2-[4-[3-(2-pyridylmethyl)pyrrolidine-1-carbonyl]anilino]-[1,2,4]triazolo[1,5-a]pyridin-8-yl]-3,6-dihydro-2H-pyridin-1-yl]butan-1-one], the IC50 was 6.4 nM.
On the same count and under the same terms, next, `CN(Cc1ccccc1)C1CCCN(C(=O)c2ccc(Nc3nc4c(C5=CCN(C(=O)CCC(F)(F)F)CC5)cccn4n3)cc2)C1` (stereo not shown) [Example 2-472, 1-[4-[2-[4-[3-[benzyl(methyl)amino]piperidine-1-carbonyl]anilino]-[1,2,4]triazolo[1,5-a]pyridin-8-yl]-3,6-dihydro-2H-pyridin-1-yl]-4,4,4-trifluoro-butan-1-one]: 67.9 nM.
Same read-out and setting: under `CN(C(=O)c1ccc(Nc2nc3c(C4=CCN(C(=O)CCC(F)(F)F)CC4)cccn3n2)cc1)C1CCN(Cc2ccccc2)C1` (stereo not shown) [Example 2-473, N-(1-benzylpyrrolidin-3-yl)-N-methyl-4-[[8-[1-(4,4,4-trifluorobutanoyl)-3,6-dihydro-2H-pyridin-4-yl]-[1,2,4]triazolo[1,5-a]pyridin-2-yl]amino]benzamide] stands 48.1 nM.
The same measure, in the same setting: under `O=C(CCC(F)(F)F)N1CC=C(c2cccn3nc(Nc4ccc(C(=O)N5CCN(CCN6CCOCC6)CC5)cc4)nc23)CC1` [Example 2-474, 4,4,4-trifluoro-1-[4-[2-[4-[4-(2-morpholinoethyl)piperazine-1-carbonyl]anilino]-[1,2,4]triazolo[1,5-a]pyridin-8-yl]-3,6-dihydro-2H-pyridin-1-yl]butan-1-one] stands 14.1 nM.
Turning to `CN1CCN(C(=O)C2CCN(C(=O)c3ccc(Nc4nc5c(C6=CCN(C(=O)CCC(F)(F)F)CC6)cccn5n4)cc3)CC2)CC1` [Example 2-475, 4,4,4-trifluoro-1-[4-[2-[4-[4-(4-methylpiperazine-1-carbonyl)piperidine-1-carbonyl]anilino]-[1,2,4]triazolo[1,5-a]pyridin-8-yl]-3,6-dihydro-2H-pyridin-1-yl]butan-1-one], the half-inhibitory concentration (IC50) turned out to be 42.9 nM.
For the compound `Cc1cccnc1CN(C)C(=O)c1ccc(Nc2nc3c(C4=CCN(C(=O)CCC(F)(F)F)CC4)cccn3n2)cc1` [Example 2-476, N-methyl-N-[(3-methyl-2-pyridyl)methyl]-4-[[8-[1-(4,4,4-trifluorobutanoyl)-3,6-dihydro-2H-pyridin-4-yl]-[1,2,4]triazolo[1,5-a]pyridin-2-yl]amino]benzamide], the IC50 came out at 10.5 nM.
On the same count and under the same terms, under `CN(Cc1ccc2c(c1)CCCN2C)C(=O)c1ccc(Nc2nc3c(C4=CCN(C(=O)CCC(F)(F)F)CC4)cccn3n2)cc1` [Example 2-477, N-methyl-N-[(1-methyl-3,4-dihydro-2H-quinolin-6-yl)methyl]-4-[[8-[1-(4,4,4-trifluorobutanoyl)-3,6-dihydro-2H-pyridin-4-yl]-[1,2,4]triazolo[1,5-a]pyridin-2-yl]amino]benzamide] stands 113 nM; under `O=C(NCCc1ccccn1)c1ccc(Nc2nc3c(C4=CCN(C(=O)CCC(F)(F)F)CC4)cccn3n2)cc1` [Example 2-478, N-[2-(2-pyridyl)ethyl]-4-[[8-[1-(4,4,4-trifluorobutanoyl)-3,6-dihydro-2H-pyridin-4-yl]-[1,2,4]triazolo[1,5-a]pyridin-2-yl]amino]benzamide], 4.8 nM.
Same read-out and setting: under `CN1CCC(N(C)C(=O)c2ccc(Nc3nc4c(C5=CCN(S(=O)(=O)N6CC(C)(C)C6)CC5)cccn4n3)cc2)CC1` [Example 2-479, 4-[[8-[1-(3,3-dimethylazetidin-1-yl)sulfonyl-3,6-dihydro-2H-pyridin-4-yl]-[1,2,4]triazolo[1,5-a]pyridin-2-yl]amino]-N-methyl-N-(1-methyl-4-piperidyl)benzamide] stands 239 nM.
Still for that read-out and setting: under `CN1CCC(N(C)C(=O)c2ccc(Nc3nc4c(C5=CCN(C(=O)N6CC(C)(C)C6)CCC5)cccn4n3)cc2)CC1` [Example 2-480, 4-[[8-[1-(3,3-dimethylazetidine-1-carbonyl)-2,3,4,7-tetrahydroazepin-5-yl]-[1,2,4]triazolo[1,5-a]pyridin-2-yl]amino]-N-methyl-N-(1-methyl-4-piperidyl)benzamide] stands 178 nM.

The next test deals with isolated recombinant JAK2 kinase domain (Homo sapiens (Human), UniProt O60674).
Sequence of isolated recombinant JAK2 kinase domain (O60674 849-1124): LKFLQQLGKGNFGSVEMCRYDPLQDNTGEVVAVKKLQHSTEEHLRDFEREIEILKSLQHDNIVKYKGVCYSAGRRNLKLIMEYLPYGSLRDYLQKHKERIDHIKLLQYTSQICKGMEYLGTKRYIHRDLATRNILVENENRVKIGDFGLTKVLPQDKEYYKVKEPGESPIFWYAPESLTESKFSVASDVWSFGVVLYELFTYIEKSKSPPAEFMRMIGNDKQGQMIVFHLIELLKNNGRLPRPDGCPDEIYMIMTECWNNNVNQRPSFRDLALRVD
Test: not given
The settings on record: read-out: JAK2 Ki; isolated recombinant JAK2 kinase domain, 25 μM ATP.
In general, Ki refers to the dissociation constant of the complex between target and ligand, obtained from inhibition or displacement. `CN1CCC(N(C)C(=O)c2ccc(Nc3nc4c(N5CCC(C)(c6ccccc6)CC5)cccn4n3)cc2)CC1` [Example 1-1, N-methyl-4-(8-(4-methyl-4-phenylpiperidin-1-yl)-[1,2,4]triazolo[1,5-a]pyridin-2-ylamino)-N-(1-methylpiperidin-4-yl)benzamide]: the inhibitory constant (Ki) came to 0.85 nM.
On the same count and under the same terms, next, `CN1CCC(N(C)C(=O)c2ccc(Nc3nc4c(N5CCC(O)(C6CCCCC6)CC5)cccn4n3)cc2)CC1` [Example 1-2, 4-[[8-(4-cyclohexyl-4-hydroxy-1-piperidyl)-[1,2,4]triazolo[1,5-a]pyridin-2-yl]amino]-N-methyl-N-(1-methyl-4-piperidyl)benzamide]: 14.2 nM.
For `CN1CCC(N(C)C(=O)c2ccc(Nc3nc4c(N5CCC(O)CC5)cccn4n3)cc2)CC1` [Example 1-3, 4-[[8-(4-hydroxy-1-piperidyl)-[1,2,4]triazolo[1,5-a]pyridin-2-yl]amino]-N-methyl-N-(1-methyl-4-piperidyl)benzamide; hydrochloride], the Ki is 92.4 nM.
With `CN1CCC(N(C)C(=O)c2ccc(Nc3nc4c(N5CC=C(c6ccccc6)CC5)cccn4n3)cc2)CC1` [Example 1-4, N-methyl-N-(1-methyl-4-piperidyl)-4-[[8-(4-phenyl-3,6-dihydro-2H-pyridin-1-yl)-[1,2,4]triazolo[1,5-a]pyridin-2-yl]amino]benzamide], the inhibitory constant (Ki) is 12.4 nM.

For the origin of these results see patent publication US9873709B2 (priority 2013, dated 2018).
